Test results from US20100056497A1, “AMIDE DERIVATIVE” (DAINIPPON SUMITOMO PHARMA CO., LTD, priority 2007, published 2010).
Structures can show the parent of a compound that is named as a salt.

Each compound was assayed against T1, Recombinant human renin (Homo sapiens, UniProt P00797) (assay: In vitro renin inhibitory activity assay (fluorescence, FRET peptide substrate)). Details: 37° C., one hour, substrate 4 μM, pH 7.4.
T1 sequence (P00797 67-406): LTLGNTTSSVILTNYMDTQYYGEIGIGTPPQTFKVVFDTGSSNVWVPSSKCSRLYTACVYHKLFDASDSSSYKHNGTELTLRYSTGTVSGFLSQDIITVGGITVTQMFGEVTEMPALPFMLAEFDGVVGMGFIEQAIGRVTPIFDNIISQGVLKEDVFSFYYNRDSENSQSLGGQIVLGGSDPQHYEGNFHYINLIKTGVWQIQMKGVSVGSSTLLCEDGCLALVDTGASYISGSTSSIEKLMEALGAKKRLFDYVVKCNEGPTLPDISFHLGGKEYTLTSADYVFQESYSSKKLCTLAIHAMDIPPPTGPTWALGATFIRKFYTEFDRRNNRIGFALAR
Assay type: biochemical
Method: In Vitro Renin Inhibitory Activity Assay
Recombinant human renin (50 ng) was reacted in 0.1M BEPES buffer (pH 7.4) containing 0.1M NaCl, 1 mM EDTA and 0.1 mg/mL BSA together with a substrate and a test compound at 37° C. for one hour. As the substrate, Arg-Glu(EDANS)-Ile-His-Pro-Phe-His-Leu-Val-Ile-His-Thr-Lys(DABCYL)-Arg or DABCYL-γ-Abu-Ile-His-Pro-Phe-His-Leu-Val-Ile-His-Thr-EDANS was added in such an amount so that the final concentration thereof became 4 μM. The elevated fluorescence intensity at the exciting wavelength 340 nm and the fluorescence wavelength 500 nm was measured by a fluorescence plate reader. The concentration of a test compound to be needed to inhibit an enzyme activity in the presence of a test compound in plural concentrations by 50% was calculated as an IC50 value.
The amino acid sequence disclosed in Seq ID:1 is an amino acid sequence used in the renin inhibitory activity assay.
The amino acid sequence disclosed in Seq ID:2 is an amino acid sequence used in the renin inhibitory activity assay.

| SMILES | IC50 |
| --- | --- |
| COCCCOc1cc(C(=O)N(C(C)C)C2CNC[C@@H](C(=O)N(C)Cc3ccccc3)C2)ccc1OC (mixture of isomers) [Example 41, (rac.)-(3S,5R)-N-Benzyl-5-{isopropy[4-methoxy-3-(3-methoxyproroxy)benzoyl]-amino}-N-methylpiperidine-3-carboxamide hydrochloride] | 430 nM |
| COCCCOc1cc(C(=O)N(C(C)C)[C@H]2CNC[C@@H](COc3cccc(-c4ccccc4)c3)C2)ccc1OC (racemic) [Example 48, N-{(rac.)-(3R,5S)-5-[(Biphenyl-3-yloxy)methyl]piperidin-3-yl}-N-isopropyl-4-methoxy-3-(3-methoxypropoxy)benzamide hydrochloride] | 620 nM |
| CCN(C(=O)C[C@H]1CC[C@@H](N(C(=O)c2ccc(OC)c(OCCCOC)c2)C(C)C)CN1)C(C)C (racemic) [Example 22, N-((rac.)-(3R,6R)-6-{2-[Ethyl(isopropyl)amino]-2-oxoethyl}piperidin-3-yl)-N-isopropyl-4-methoxy-3-(3-methoxypropoxy)benzamide hydrochloride] | 480 nM |
| COCCCOc1cc(C(=O)N(C[C@@H]2CCNC2)C(C)C)ccc1OC [Compound B, reference compound] | 2300 nM |
| COCCCOc1cc(C(=O)N(C(C)C)[C@@H]2CC[C@H](CC(=O)N(C(C)C)C3CCCCC3)NC2)ccc1OC (racemic) [Example 51, N-((rac.)-(3R,6R)-6-{2-[Cyclohexyl(isopropyl)amino]-2-oxoethyl}piperidin-3-yl)-N-isopropyl-4-methoxy-3-(3-methoxypropoxy)benzamide hydrochloride] | 500 nM |
| COCCCOc1cc(C(=O)N(C(C)C)[C@H]2CNC[C@@H](COc3ccccc3-c3ccccc3)C2)ccc1OC (racemic) [Example 46, N-{(rac.)-(3R,5S)-5-[(Biphenyl-2-yloxy)methyl]piperidin-3-yl}-N-isopropyl-4-methoxy-3-(3-methoxypropoxy)benzamide hydrochloride] | 790 nM |
| COCCCOc1cc(C(=O)N(C(C)C)[C@H]2CNC[C@@H](COc3cccc(Oc4ccccc4)c3)C2)ccc1OC (racemic) [Example 49, N-Isopropyl-4-methoxy-3-(3-methoxypropoxy)-N-{(rac.)-(3R,5S)-5-[(3-phenoxy-phenoxy)methyl]piperidin-3-yl}benzamide hydrochloride] | 740 nM |
| CCOC(=O)C[C@H]1CC[C@@H](N(C(=O)c2ccc(OC)c(OCCCOC)c2)C(C)C)CN1 (racemic) [Example 14, Ethyl ((rac.)-(2R,5R)-5-{isopropyl[4-methoxy-3-(3-methoxypropoxy)benzoyl]-amino}piperidin-2-yl)acetate] | 930 nM |
| COCCCOc1cc(C(=O)N(C(C)C)[C@H]2CNC[C@H](COC(=O)NC(C)C)C2)ccc1OC (racemic) [Example 57, ((rac.)-(3R,5R)-5-{Isopropyl[4-methoxy-3-(3-methoxypropoxy)benzoyl]amino}-piperidin-3-yl)methyl isopropylcarbamate hydrochloride] | 830 nM |
| COCCCOc1cc(C(=O)N(C(C)C)[C@H]2CNCC[C@@H]2c2ccccc2)ccc1OC (racemic) [Example 45, N-Isopropyl-4-methoxy-3-(3-methoxypropoxy)-N-[(rac.)-(3R,4R)-4-phenylpiperidin-3-yl]benzamide hydrochloride] | 410 nM |
| COCCCOc1cc(C(=O)N(C(C)C)[C@H]2CNC[C@@H](COc3cccc(OCc4ccccc4)c3)C2)ccc1OC (racemic) [Example 50, hydrochloride] | 540 nM |

These reach a lower IC50. Values come first.

| IC50 | SMILES |
| --- | --- |
| 330 nM | COCCCOc1cc(C(=O)N(C(C)C)[C@@H]2CC[C@@H](CCN(C(=O)Cc3ccccc3)C3CC3)NC2)ccc1OC (racemic) [Example 23, N-((rac.)-(3R,6S)-6-{2-[Cyclopropyl(phenylacetyl)amino]ethyl}piperidin-3-yl)-N-isopropyl-4-methoxy-3-(3-methoxypropoxy)benzamide hydrochloride] |
| 240 nM | COCCCOc1cc(C(=O)N(C(C)C)C2CNC[C@@H](COC(=O)NCCc3ccccc3)C2)ccc1OC (mixture of isomers) [Example 31, ((rac.)-(3S,5R)-5-{Isopropyl[4-methoxy-3-(3-methoxypropoxy)benzoyl]amino}-piperidin-3-yl)methyl(2-phenylethyl)carbamate hydrochloride] |
| 220 nM | COCCCOc1cc(C(=O)N(C(C)C)[C@@H]2CCCNC2)c(Cl)cc1OC [Example 53, 2-Chloro-N-isopropyl-methoxy-5-(3-methoxypropoxy)-N-[(3R)-piperidin-3-yl]-benzamide hydrochloride] |
| 150 nM | CCN(CCc1ccccc1)C(=O)OC[C@@H]1CNC[C@H](N(C(=O)c2ccc(OC)c(OCCCOC)c2)C(C)C)C1 (racemic) [Example 58] |
| 61 nM | COCCCOc1cc(C(=O)N(C(C)C)[C@@H]2CC[C@H](CCN(C(=O)CCCO)C3CC3)NC2)ccc1OC [Example 66, N-((3R,6R)-6-{2-[Cyclopropyl(4-hydroxybutanoyl)amino]ethyl}piperidin-3-yl)-N-isopropyl-4-methoxy-3-(3-methoxypropoxy)benzamide hydrochloride] |
| 27.9 nM | COCCCOc1cc(C(=O)N(C(C)C)[C@@H]2CC[C@H](CCN(C(=O)CC(C)(C)C(N)=O)C3CC3)NC2)ccc1OC [Example 69, N^4-Cyclopropyl-N^4-[2-((2R,5R)-5-{isopropyl[4-methoxy-3-(3-methoxypropoxy)-benzoyl]amino}piperidin-2-yl)ethyl]-2,2-dimethylsuccinamide trifluoroacetate] |
| 21.7 nM | COCCCCN1C(=O)C(C)(C)Oc2ccc(C(=O)N(C(C)C)[C@@H]3CCCNC3)cc21 [Example 126, N-Isopropyl-4-(4-methoxybutyl)-2,2-dimethyl-3-oxo-N-[(3R)-piperidin-3-yl]-3,4-dihydro-2H-1,4-benzoxazine-6-carboxyamide hydrochloride] |
| 16.8 nM | COCCCOc1cc(C(=O)N(C(C)C)[C@@H]2CC[C@H](CCN(C(=O)CCOC)C3CC3)NC2)ccc1OC [Example 64, N-((3R,6R)-6-{2-[Cyclopropyl(3-methoxypropanoyl)amino]ethyl}piperidin-3-yl)-N-isopropyl-4-methoxy-3-(3-methoxypropoxy)benzamide hydrochloride] |
| 12.9 nM | COCCCOc1cc(C(=O)N(C(C)C)[C@@H]2CC[C@H](CCN(C(=O)CC(C)(C)O)C3CC3)NC2)ccc1OC [Example 67, N-((3R,6R)-6-{2-[Cyclopropyl(3-hydroxy-3-methylbutanoyl)amino]ethyl}piperidin-3-yl)-N-isopropyl-4-methoxy-3-(3-methoxypropoxy)benzamide hydrochloride] |
| 5.1 nM | COCCCOc1cc(C(=O)N(C(C)C)[C@@H]2CC[C@H](CCN(C(=O)Cc3ccccc3C(F)(F)F)C3CC3)NC2)ccc1OC [Example 74, N-{(3R,6R)-6-[2-(Cyclopropyl{[2-(trifluoromethyl)phenyl]acetyl}amino)ethyl]-piperidin-3-yl}-N-isopropyl-4-methoxy-3-(3-methoxypropoxy)benzamide trifluoroacetate] |
| 4.6 nM | COCCCOc1cc(C(=O)N(C(C)C)[C@@H]2CC[C@H](CCN(C(=O)Cc3ccccc3OC)C3CC3)NC2)ccc1OC [Example 73, N-[(3R,6R)-6-(2-{Cyclopropyl[(2-methoxyphenyl)acetyl]amino}ethyl)piperidin-3-yl]-N-isopropyl-4-methoxy-3-(3-methoxypropoxy)benzamide trifluoroacetate] |
| 4 nM | COCCCOc1cc(C(=O)N(C(C)C)[C@@H]2CC[C@H](CCN(C(=O)Cc3cccc(C(=O)O)c3)C3CC3)NC2)ccc1OC [Example 86, 3-(2-{Cyclopropyl[2-((2R,5R)-5-{isopropyl[4-methoxy-3-(3-methoxypropoxy)-benzoyl]amino}piperidin-2-yl)ethyl]amino}-2-oxoethyl)benzoic acid hydrochloride] |
| 3.7 nM | COCCCOc1cc(C(=O)N(C(C)C)[C@@H]2CC[C@H](CCN(C(=O)Cc3ccccc3Cl)C3CC3)NC2)ccc1OC [Example 72, N-((3R,6R)-6-{2-[[(2-chlorophenyl)acetyl](cyclopropyl)amino]ethyl}piperidin-3-yl)-N-isopropyl-4-methoxy-3-(3-methoxypropoxy)benzamide trifluoroacetate] |
| 1.3 nM | COCCCOc1cc(C(=O)N(C(C)C)[C@@H]2CC[C@H](CCN(C(=O)Cc3cccc(NS(C)(=O)=O)c3)C3CC3)NC2)ccc1OC [Example 81, N-((3R,6R)-6-{2-[Cyclopropyl({3-[(methylsulfonyl)amino]phenyl}acetyl)amino]-ethyl}piperidin-3-yl)-N-isopropyl-4-methoxy-3-(3-methoxypropoxy)benzamide trifluoroacetate] |
| 0.79 nM | COCCCOc1cc(C(=O)N(C(C)C)[C@@H]2CC[C@H](CCN(C(=O)Cc3cccnc3)C3CC3)NC2)ccc1OC [Example 78, N-((3R,6R)-6-{2-[Cyclopropyl(pyridin-3-ylacetyl)amino]ethyl}piperidin-3-yl)-N-isopropyl-4-methoxy-3-(3-methoxypropoxy)benzamide trifluoroacetate] |
